What was measured:
[1] = Inhibition of Penicillium decumbens alpha-L-rhamnosidase using p-nitrophenyl glycoside as substrate assessed as release of p-nitrophenol measured by spectrometric assay
[2] = Inhibition of almond beta-glucosidase using p-nitrophenyl glycoside as substrate assessed as release of p-nitrophenol measured by spectrometric assay; parameters: species or system Prunus dulcis
[3] = target: T1, Tissue alpha-L-fucosidase (Bos taurus, UniProt Q2KIM0); experiment: Inhibition of bovine kidney alpha-L-fucosidase using p-nitrophenyl glycoside as substrate assessed as release of p-nitrophenol measured by spectrometric assay
T1 sequence (Q2KIM0 whole entry): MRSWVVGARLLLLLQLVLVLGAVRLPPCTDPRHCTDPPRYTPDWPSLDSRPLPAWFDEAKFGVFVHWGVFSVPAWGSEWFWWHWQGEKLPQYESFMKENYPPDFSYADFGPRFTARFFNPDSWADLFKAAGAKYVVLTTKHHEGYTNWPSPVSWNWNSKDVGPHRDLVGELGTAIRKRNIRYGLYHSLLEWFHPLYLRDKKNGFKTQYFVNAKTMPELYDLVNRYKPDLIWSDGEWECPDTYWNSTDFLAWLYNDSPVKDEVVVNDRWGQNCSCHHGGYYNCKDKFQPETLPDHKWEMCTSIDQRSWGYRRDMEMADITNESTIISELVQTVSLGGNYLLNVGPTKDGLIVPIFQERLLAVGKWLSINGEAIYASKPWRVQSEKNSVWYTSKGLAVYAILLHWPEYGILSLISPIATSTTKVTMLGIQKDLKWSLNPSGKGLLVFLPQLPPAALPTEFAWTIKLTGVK

Alpha-galactosidase = Alpha-galactosidase (Coffea arabica, UniProt Q42656); experiment: Inhibition of coffee beans alpha-galactosidase using p-nitrophenyl glycoside as substrate assessed as release of p-nitrophenol measured by spectrometric assay
[4] = Inhibition of Aspergillus niger amyloglucosidase using p-nitrophenyl glycoside as substrate assessed as release of p-nitrophenol measured by spectrometric assay
[5] = Inhibition of rat intestinal maltase using maltose as substrate assessed as release of D-glucose measured by spectrometric assay
[6] = Inhibition of porcine kidney alpha-trehalase using p-nitrophenyl glycoside as substrate assessed as release of p-nitrophenol measured by spectrometric assay; parameters: species or system Sus scrofa
Beta-glucuronidase = Beta-glucuronidase (Escherichia coli (strain K12), UniProt P05804); experiment: Inhibition of Escherichia coli beta-glucuronidase using p-nitrophenyl glycoside as substrate assessed as release of p-nitrophenol measured by spectrometric assay
[7] = Inhibition of rice alpha-glucosidase using p-nitrophenyl glycoside as substrate assessed as release of p-nitrophenol measured by spectrometric assay; parameters: species or system Oryza sativa
[8] = Inhibition of bovine liver beta-glucosidase using p-nitrophenyl glycoside as substrate assessed as release of p-nitrophenol measured by spectrometric assay; parameters: species or system Bos taurus
[9] = Inhibition of bovine liver beta-galactosidase using p-nitrophenyl glycoside as substrate assessed as release of p-nitrophenol measured by spectrometric assay; type: tissue-based, Bos taurus
[10] = Inhibition of jack bean alpha-mannosidase using p-nitrophenyl glycoside as substrate assessed as release of p-nitrophenol measured by spectrometric assay; parameters: species or system Canavalia ensiformis
[11] = Inhibition of snail beta-mannosidase using p-nitrophenyl glycoside as substrate assessed as release of p-nitrophenol measured by spectrometric assay; parameters: species or system Helix pomatia
Penicillium decumbens = experiment: Inhibition of Penicillium decumbens alpha-L-rhamnosidase using p-nitrophenyl glycoside as substrate assessed as release of p-nitrophenol at 1000 uM measured by spectrometric assay relative to control
Bos taurus [12] = species: Bos taurus; experiment: Inhibition of bovine liver beta-glucosidase using p-nitrophenyl glycoside as substrate assessed as release of p-nitrophenol at 1000 uM measured by spectrometric assay relative to control; type: tissue-based
Helix pomatia = experiment: Inhibition of snail beta-mannosidase using p-nitrophenyl glycoside as substrate assessed as release of p-nitrophenol at 1000 uM measured by spectrometric assay relative to control
[13] = target: T2, Sucrase-isomaltase, intestinal (Rattus norvegicus, UniProt P23739); experiment: Inhibition of rat intestinal isomaltase using p-nitrophenyl glycoside as substrate assessed as release of p-nitrophenol measured by spectrometric assay; details: read-out: IC50
Sus scrofa = species: Sus scrofa; experiment: Inhibition of porcine kidney alpha-trehalase using p-nitrophenyl glycoside as substrate assessed as release of p-nitrophenol at 1000 uM measured by spectrometric assay relative to control
Bos taurus [14] = species: Bos taurus; experiment: Inhibition of bovine liver beta-galactosidase using p-nitrophenyl glycoside as substrate assessed as release of p-nitrophenol at 1000 uM measured by spectrometric assay relative to control
[15] = target: T3, Tissue alpha-L-fucosidase (Bos taurus) (UniProt Q2KIM0); experiment: Inhibition of bovine kidney alpha-L-fucosidase using p-nitrophenyl glycoside as substrate assessed as release of p-nitrophenol at 1000 uM measured by spectrometric assay relative to control; type: tissue-based
T3 sequence (whole entry): T1 sequence (Q2KIM0 whole entry)

[16] = target: T4, Alpha-mannosidase (Canavalia ensiformis) (UniProt C0HJB3); experiment: Inhibition of jack bean alpha-mannosidase using p-nitrophenyl glycoside as substrate assessed as release of p-nitrophenol at 1000 uM measured by spectrometric assay relative to control
T4 sequence (whole entry): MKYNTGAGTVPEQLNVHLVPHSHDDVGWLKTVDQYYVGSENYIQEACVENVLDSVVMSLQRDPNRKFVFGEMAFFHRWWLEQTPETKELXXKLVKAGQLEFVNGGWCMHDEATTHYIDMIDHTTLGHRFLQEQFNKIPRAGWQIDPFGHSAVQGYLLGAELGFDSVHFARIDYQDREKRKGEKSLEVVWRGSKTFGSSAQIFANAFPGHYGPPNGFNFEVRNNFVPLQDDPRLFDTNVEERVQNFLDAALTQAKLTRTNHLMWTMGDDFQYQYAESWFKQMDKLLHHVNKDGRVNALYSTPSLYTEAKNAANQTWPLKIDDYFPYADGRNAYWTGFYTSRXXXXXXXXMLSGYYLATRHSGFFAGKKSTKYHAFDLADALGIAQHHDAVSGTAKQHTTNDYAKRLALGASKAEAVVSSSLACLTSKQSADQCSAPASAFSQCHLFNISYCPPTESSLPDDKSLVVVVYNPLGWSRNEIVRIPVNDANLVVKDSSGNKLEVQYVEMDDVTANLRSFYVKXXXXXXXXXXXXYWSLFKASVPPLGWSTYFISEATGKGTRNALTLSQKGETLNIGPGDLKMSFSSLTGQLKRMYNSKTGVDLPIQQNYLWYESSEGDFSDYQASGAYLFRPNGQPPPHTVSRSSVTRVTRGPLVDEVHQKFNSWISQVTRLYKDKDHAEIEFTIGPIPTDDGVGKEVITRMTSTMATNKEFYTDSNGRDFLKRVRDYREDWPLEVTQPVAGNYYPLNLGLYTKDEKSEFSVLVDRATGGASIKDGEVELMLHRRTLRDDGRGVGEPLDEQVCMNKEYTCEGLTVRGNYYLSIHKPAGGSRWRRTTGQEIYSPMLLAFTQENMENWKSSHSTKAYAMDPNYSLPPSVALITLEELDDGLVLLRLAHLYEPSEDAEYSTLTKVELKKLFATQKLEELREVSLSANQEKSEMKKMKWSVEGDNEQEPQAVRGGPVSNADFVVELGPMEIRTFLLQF

[17] = target: Beta-glucuronidase (Escherichia coli (strain K12)) (UniProt P05804); experiment: Inhibition of Escherichia coli beta-glucuronidase using p-nitrophenyl glycoside as substrate assessed as release of p-nitrophenol at 1000 uM measured by spectrometric assay relative to control
[18] = target: T2, Sucrase-isomaltase, intestinal; experiment: Inhibition of rat intestinal sucrase using p-nitrophenyl glycoside as substrate assessed as release of p-nitrophenol measured by spectrometric assay; details: read-out: IC50
Prunus dulcis = experiment: Inhibition of almond beta-glucosidase using p-nitrophenyl glycoside as substrate assessed as release of p-nitrophenol at 1000 uM measured by spectrometric assay relative to control
Aspergillus niger = experiment: Inhibition of Aspergillus niger amyloglucosidase using p-nitrophenyl glycoside as substrate assessed as release of p-nitrophenol at 1000 uM measured by spectrometric assay relative to control

Sequence of Beta-glucuronidase (P05804 whole entry): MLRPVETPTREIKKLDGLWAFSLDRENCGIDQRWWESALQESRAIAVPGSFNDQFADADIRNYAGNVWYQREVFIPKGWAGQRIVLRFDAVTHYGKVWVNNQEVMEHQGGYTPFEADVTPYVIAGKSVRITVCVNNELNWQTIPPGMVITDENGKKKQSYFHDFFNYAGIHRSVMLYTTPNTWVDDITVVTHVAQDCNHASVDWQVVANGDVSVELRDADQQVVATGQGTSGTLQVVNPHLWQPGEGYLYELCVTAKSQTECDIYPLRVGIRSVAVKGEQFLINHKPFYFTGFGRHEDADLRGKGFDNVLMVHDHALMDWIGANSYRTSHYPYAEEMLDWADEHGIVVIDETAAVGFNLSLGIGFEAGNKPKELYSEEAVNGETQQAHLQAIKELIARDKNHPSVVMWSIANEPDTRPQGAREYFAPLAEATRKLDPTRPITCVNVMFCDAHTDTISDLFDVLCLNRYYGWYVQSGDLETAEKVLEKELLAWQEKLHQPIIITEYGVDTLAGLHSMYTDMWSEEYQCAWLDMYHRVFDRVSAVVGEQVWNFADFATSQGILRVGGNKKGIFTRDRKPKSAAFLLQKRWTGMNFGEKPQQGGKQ
Sequence of Beta-glucuronidase (Escherichia coli (strain K12)) (P05804 whole entry, looked up): as the sequence (P05804 whole entry) above
T2 sequence (P23739 1-1013 limits assumed): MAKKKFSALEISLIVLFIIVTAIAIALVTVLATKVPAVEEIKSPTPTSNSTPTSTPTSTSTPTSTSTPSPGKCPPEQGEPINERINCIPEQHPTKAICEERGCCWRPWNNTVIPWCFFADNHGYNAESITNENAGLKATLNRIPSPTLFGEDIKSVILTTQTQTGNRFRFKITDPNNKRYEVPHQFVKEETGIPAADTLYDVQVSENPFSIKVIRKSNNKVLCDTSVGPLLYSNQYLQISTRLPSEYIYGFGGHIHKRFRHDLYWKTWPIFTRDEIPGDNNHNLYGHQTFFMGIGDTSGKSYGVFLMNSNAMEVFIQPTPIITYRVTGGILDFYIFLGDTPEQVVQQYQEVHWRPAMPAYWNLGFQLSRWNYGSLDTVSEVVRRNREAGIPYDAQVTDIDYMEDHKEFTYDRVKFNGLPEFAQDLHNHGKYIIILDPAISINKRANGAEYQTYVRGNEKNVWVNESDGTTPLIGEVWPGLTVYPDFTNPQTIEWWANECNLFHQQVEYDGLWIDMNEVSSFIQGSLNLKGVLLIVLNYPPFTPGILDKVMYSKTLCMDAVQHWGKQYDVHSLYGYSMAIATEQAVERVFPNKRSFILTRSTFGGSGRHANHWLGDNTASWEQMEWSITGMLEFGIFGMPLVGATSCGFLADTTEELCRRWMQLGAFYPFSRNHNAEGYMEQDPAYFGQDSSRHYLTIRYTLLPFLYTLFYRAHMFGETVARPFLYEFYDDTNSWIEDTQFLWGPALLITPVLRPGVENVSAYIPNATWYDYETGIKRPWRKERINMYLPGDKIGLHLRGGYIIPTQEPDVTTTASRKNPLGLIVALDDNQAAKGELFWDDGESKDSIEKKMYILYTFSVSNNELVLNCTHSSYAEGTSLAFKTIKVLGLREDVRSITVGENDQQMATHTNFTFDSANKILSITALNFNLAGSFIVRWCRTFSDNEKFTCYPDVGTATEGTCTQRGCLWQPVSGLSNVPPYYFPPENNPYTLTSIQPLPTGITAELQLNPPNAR
T2 sequence (P23739 1014-1841 limits assumed): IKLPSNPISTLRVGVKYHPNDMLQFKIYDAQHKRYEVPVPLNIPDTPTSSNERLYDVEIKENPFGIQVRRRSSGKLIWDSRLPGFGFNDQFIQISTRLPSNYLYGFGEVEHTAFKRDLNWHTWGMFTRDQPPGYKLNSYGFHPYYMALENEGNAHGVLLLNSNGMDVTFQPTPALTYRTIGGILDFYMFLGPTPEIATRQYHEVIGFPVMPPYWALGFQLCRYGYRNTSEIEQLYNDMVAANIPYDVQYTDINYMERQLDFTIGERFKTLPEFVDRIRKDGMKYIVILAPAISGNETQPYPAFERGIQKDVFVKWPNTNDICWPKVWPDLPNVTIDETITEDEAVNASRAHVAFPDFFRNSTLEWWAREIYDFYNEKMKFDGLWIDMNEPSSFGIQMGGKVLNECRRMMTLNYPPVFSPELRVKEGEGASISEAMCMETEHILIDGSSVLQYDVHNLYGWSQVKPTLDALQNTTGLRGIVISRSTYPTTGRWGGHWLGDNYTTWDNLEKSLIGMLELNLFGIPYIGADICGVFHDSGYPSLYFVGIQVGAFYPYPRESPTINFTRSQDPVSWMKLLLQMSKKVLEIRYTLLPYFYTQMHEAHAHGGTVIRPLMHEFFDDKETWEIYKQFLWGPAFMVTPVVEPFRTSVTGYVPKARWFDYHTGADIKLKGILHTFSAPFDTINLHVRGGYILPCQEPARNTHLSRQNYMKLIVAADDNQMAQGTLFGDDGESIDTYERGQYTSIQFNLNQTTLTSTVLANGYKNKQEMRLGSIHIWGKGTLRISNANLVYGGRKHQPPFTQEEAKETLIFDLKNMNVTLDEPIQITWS
Sequence of Alpha-galactosidase (Q42656 whole entry): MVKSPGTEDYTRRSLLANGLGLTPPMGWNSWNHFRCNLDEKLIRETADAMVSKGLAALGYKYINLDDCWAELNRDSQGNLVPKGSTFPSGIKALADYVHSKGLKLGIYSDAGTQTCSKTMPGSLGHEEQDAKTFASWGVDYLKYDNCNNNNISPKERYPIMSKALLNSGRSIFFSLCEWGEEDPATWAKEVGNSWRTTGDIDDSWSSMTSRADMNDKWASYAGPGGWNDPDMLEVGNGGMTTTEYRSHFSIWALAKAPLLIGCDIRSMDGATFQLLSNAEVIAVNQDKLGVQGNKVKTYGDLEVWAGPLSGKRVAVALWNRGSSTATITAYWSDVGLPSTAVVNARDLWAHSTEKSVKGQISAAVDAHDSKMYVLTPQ

Row | Structure (SMILES) | IC50 [1] | IC50 [2] | IC50 [3] | IC50 [4] | IC50 [5] [µM] | IC50 [6] | IC50 (Beta-glucuronidase) | IC50 [10] | IC50 [11] | inhibition (Penicillium decumbens) [%] | IC50 (Alpha-galactosidase; read-out: IC50) [µM] | inhibition (Helix pomatia) [%] | IC50 [13] [µM] | inhibition (Sus scrofa) [%] | inhibition [15] [%] | IC50 ([7]; read-out: IC50) [µM] | inhibition [16] [%] | IC50 [18] [µM] | inhibition (Prunus dulcis) [%] | inhibition (Aspergillus niger) [%] | further results
1 | OC[C@@H]1NC[C@H](O)[C@@H](O)[C@@H]1O | Not Active | Not Active | Not Active | Not Active | 8.4 | Not Active | Not Active | Not Active | Not Active |  |  |  |  |  |  |  |  |  |  |  | IC50 (Alpha-galactosidase): Not Active; IC50 [7]: Not Active; IC50 [8]: Not Active; IC50 [9]: Not Active
2 | CCCCCCCCCCCC[C@]1(CO)NC[C@H](O)[C@@H](O)[C@@H]1O.Cl | Not Active | Not Active | Not Active | Not Active | 0.07 | Not Active | Not Active | Not Active | Not Active | 0.3 | 10 | 1.5 | 7.8 | 4.8 | 16 | 0.024 | 7.9 | 1.2 | 10 | 10.7 | inhibition (Bos taurus [12]): 25%; inhibition (Bos taurus [14]): 48.4%; IC50 [8]: Not Active; IC50 [9]: Not Active; inhibition [17]: 16.5%
3 | CCCC[C@]1(CO)NC[C@H](O)[C@@H](O)[C@@H]1O.Cl | Not Active | Not Active | Not Active | Not Active | 0.17 | Not Active |  | Not Active | Not Active | 16.3 | 58 | 16.5 | 2.6 | 33.5 | 10.3 | 0.14 | 6.6 | 0.56 | 36.6 | 17.1 | IC50 (Beta-glucuronidase; read-out: IC50): 679 µM; IC50 ([8]; read-out: IC50): 315 µM; IC50 ([9]; read-out: IC50): 127 µM
4 | CCCCCCCCCC[C@]1(CO)NC[C@H](O)[C@@H](O)[C@@H]1O.Cl | Not Active | Not Active | Not Active | Not Active | 0.12 | Not Active | Not Active | Not Active | Not Active | 0 | 18 | 0 | 13 | 5.7 | 0.9 | 0.033 | 4.3 | 1.7 | 10 | 9.2 | IC50 ([8]; read-out: IC50): 21 µM; inhibition [17]: 24.4%
5 | CCCCCCCCC[C@]1(CO)NC[C@H](O)[C@@H](O)[C@@H]1O.Cl | Not Active | Not Active | Not Active | Not Active | 0.12 |  |  | Not Active | Not Active | 9.1 | 15 | 2.5 | 1.7 |  | 25.3 | 0.028 | 10.7 | 0.45 | 41.7 | 14.1 | IC50 ([6]; read-out: IC50): 494 µM; IC50 (Beta-glucuronidase; read-out: IC50): 158 µM; IC50 ([8]; read-out: IC50): 211 µM; IC50 ([9]; read-out: IC50): 68 µM
6 | CCCCCCC[C@]1(CO)NC[C@H](O)[C@@H](O)[C@@H]1O.Cl | Not Active | Not Active | Not Active | Not Active | 0.036 | Not Active |  | Not Active | Not Active | 0 | 109 | 8.5 | 0.55 | 12.9 | 45.9 | 0.05 | 17.3 | 0.23 | 36.3 | 12.2 | inhibition (Bos taurus [12]): 20.5%; inhibition (Bos taurus [14]): 29%; IC50 (Beta-glucuronidase; read-out: IC50): 28 µM; IC50 [8]: Not Active; IC50 [9]: Not Active
7 | CCCCCCCCCCC[C@]1(CO)NC[C@H](O)[C@@H](O)[C@@H]1O.Cl | Not Active | Not Active | Not Active | Not Active | 0.032 | Not Active | Not Active | Not Active | Not Active | 4.5 | 3.6 | 0 | 1.1 | 20.3 | 6.6 | 0.02 | 2.1 | 0.19 | 10 | 0 | inhibition (Bos taurus [12]): 3.7%; IC50 [8]: Not Active; IC50 ([9]; read-out: IC50): 70 µM; inhibition [17]: 25.2%
